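Dose response: 5 concentrations. Exposure: 48 h. Format: 96-well plates. Endpoint: linear interpolation; highest concentration if not reached. The concentration for 50% growth inhibition is given as GI50. TGI marks complete inhibition of growth.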
Columns and labels:
Assay in all cases: NCI tumour cell line growth inhibition, 48 h
EKVX NSCLC = test system: EKVX NSCLC
OVCAR-3 ovarian = test system: OVCAR-3 ovarian
SF-268 CNS = test system: SF-268 CNS
HOP-92 NSCLC = test system: HOP-92 NSCLC
SNB-19 CNS = test system: SNB-19 CNS
SNB-75 CNS = test system: SNB-75 CNS
HCT-116 colon = test system: HCT-116 colon
SK-MEL-28 melanoma = test system: SK-MEL-28 melanoma
NCI-H23 lung = test system: NCI-H23 lung
MDA-MB-231 breast = test system: MDA-MB-231 breast
NCI/ADR-RES ovarian = test system: NCI/ADR-RES ovarian
K-562 leukemia = test system: K-562 leukemia
CCRF-CEM leukemia = test system: CCRF-CEM leukemia
U251 CNS = test system: U251 CNS
OVCAR-5 ovarian = test system: OVCAR-5 ovarian
TK-10 renal = test system: TK-10 renal
NCI-H460 lung = test system: NCI-H460 lung
RXF 393 renal = test system: RXF 393 renal
LOX IMVI melanoma = test system: LOX IMVI melanoma
SK-OV-3 ovarian = test system: SK-OV-3 ovarian
HCC-2998 colon = test system: HCC-2998 colon
DU-145 prostate = test system: DU-145 prostate
SF-539 CNS = test system: SF-539 CNS
HL-60(TB) leukemia = test system: HL-60(TB) leukemia
HT29 colon = test system: HT29 colon
UACC-62 melanoma = test system: UACC-62 melanoma
SN12C renal = test system: SN12C renal
SK-MEL-5 melanoma = test system: SK-MEL-5 melanoma
MALME-3M melanoma = test system: MALME-3M melanoma
A498 renal = test system: A498 renal
M14 melanoma = test system: M14 melanoma
A549 NSCLC = test system: A549 NSCLC
NCI-H522 lung = test system: NCI-H522 lung
HS 578T breast = test system: HS 578T breast
UACC-257 melanoma = test system: UACC-257 melanoma
SR leukemia = test system: SR leukemia
SW-620 colon = test system: SW-620 colon
OVCAR-8 ovarian = test system: OVCAR-8 ovarian
SF-295 CNS = test system: SF-295 CNS
KM12 colon = test system: KM12 colon
BT-549 breast = test system: BT-549 breast
ACHN renal = test system: ACHN renal
SK-MEL-2 melanoma = test system: SK-MEL-2 melanoma
RPMI-8226 leukemia = test system: RPMI-8226 leukemia
MDA-MB-435 = test system: MDA-MB-435
MOLT-4 leukemia = test system: MOLT-4 leukemia
HOP-62 NSCLC = test system: HOP-62 NSCLC
COLO 205 colon = test system: COLO 205 colon
786-0 renal = test system: 786-0 renal
HCT-15 colon = test system: HCT-15 colon
T-47D breast = test system: T-47D breast
IGROV1 ovarian = test system: IGROV1 ovarian
OVCAR-4 ovarian = test system: OVCAR-4 ovarian
MCF7 breast = test system: MCF7 breast
PC-3 prostate = test system: PC-3 prostate
UO-31 renal = test system: UO-31 renal

## C=CCn1c(SCC(=O)Nc2ccc(C(=O)/C=C/c3cc(OC)c(OC)c(OC)c3)cc2)nnc1-c1cc(OC)c(OC)c(OC)c1
EKVX NSCLC
  GI50: 4.03 µM
  TGI: 33.8 µM
OVCAR-3 ovarian
  GI50: 2.98 µM
  TGI: 8.46 µM
SF-268 CNS
  GI50: 3.99 µM
  TGI: 64.6 µM
HOP-92 NSCLC
  GI50: 12.5 µM
  TGI: 56.6 µM
SNB-19 CNS
  GI50: 4.3 µM
  TGI: 73.2 µM
SNB-75 CNS
  GI50: 2.71 µM
  TGI: 27.6 µM
HCT-116 colon
  GI50: 2.09 µM
  TGI: 5.12 µM
SK-MEL-28 melanoma
  GI50: 3.29 µM
  TGI: 32.3 µM
NCI-H23 lung
  GI50: 3.41 µM
  TGI: 26 µM
MDA-MB-231 breast
  GI50: 3.81 µM
  TGI: > 100 µM
NCI/ADR-RES ovarian
  GI50: 15.3 µM
  TGI: > 100 µM
K-562 leukemia
  GI50: 3.44 µM
  TGI: > 100 µM
CCRF-CEM leukemia
  GI50: 3.33 µM
  TGI: > 100 µM
U251 CNS
  GI50: 2.15 µM
  TGI: 5.38 µM
OVCAR-5 ovarian
  GI50: 3.97 µM
  TGI: 28.1 µM
TK-10 renal
  GI50: 23.3 µM
  TGI: 58.8 µM
NCI-H460 lung
  GI50: 3.76 µM
  TGI: 14.5 µM
RXF 393 renal
  GI50: 2.16 µM
  TGI: 4.65 µM
LOX IMVI melanoma
  GI50: 2.3 µM
  TGI: 6.53 µM
SK-OV-3 ovarian
  GI50: 5.08 µM
  TGI: 21.2 µM
HCC-2998 colon
  GI50: 2.05 µM
  TGI: 4.48 µM
DU-145 prostate
  GI50: 6.09 µM
  TGI: > 100 µM
SF-539 CNS
  GI50: 2.52 µM
  TGI: 8.83 µM
HL-60(TB) leukemia
  GI50: 2.88 µM
  TGI: 33 µM
HT29 colon
  GI50: 2.66 µM
  TGI: 6.14 µM
UACC-62 melanoma
  GI50: 3.31 µM
  TGI: 17.5 µM
SN12C renal
  GI50: 4.74 µM
  TGI: > 100 µM
SK-MEL-5 melanoma
  GI50: 4.27 µM
  TGI: 16 µM
MALME-3M melanoma
  GI50: 11.1 µM
  TGI: 64.4 µM
A498 renal
  GI50: 7.4 µM
  TGI: 20.3 µM
M14 melanoma
  GI50: 2.96 µM
  TGI: 11.8 µM
A549 NSCLC
  GI50: 6.46 µM
  TGI: 36.5 µM
NCI-H522 lung
  GI50: 6.89 µM
  TGI: 27.2 µM
HS 578T breast
  GI50: 4.66 µM
  TGI: > 100 µM
UACC-257 melanoma
  GI50: 7.45 µM
  TGI: 36 µM
SR leukemia
  GI50: 2.34 µM
  TGI: > 100 µM
SW-620 colon
  GI50: 3.37 µM
  TGI: 16 µM
OVCAR-8 ovarian
  GI50: 5.94 µM
  TGI: 34.9 µM
SF-295 CNS
  GI50: 5.25 µM
  TGI: > 100 µM
KM12 colon
  GI50: 2.82 µM
  TGI: 8.18 µM
BT-549 breast
  GI50: 2.14 µM
  TGI: 6.25 µM
ACHN renal
  GI50: 4.16 µM
  TGI: 20.6 µM
SK-MEL-2 melanoma
  GI50: 14.8 µM
  TGI: 45.3 µM
RPMI-8226 leukemia
  GI50: 1.51 µM
  TGI: 4.91 µM
MDA-MB-435
  GI50: 2.72 µM
  TGI: 10.7 µM
MOLT-4 leukemia
  GI50: 4.22 µM
  TGI: > 100 µM
HOP-62 NSCLC
  GI50: 5.17 µM
  TGI: 37.9 µM
COLO 205 colon
  GI50: 4.94 µM
  TGI: 24.7 µM
786-0 renal
  GI50: 1.85 µM
  TGI: 4.01 µM
HCT-15 colon
  GI50: 1.86 µM
  TGI: 5.61 µM
T-47D breast
  GI50: 5.44 µM
  TGI: 40.7 µM
IGROV1 ovarian
  GI50: 3.42 µM
  TGI: 18.4 µM
OVCAR-4 ovarian
  GI50: 5.67 µM
  TGI: 38.6 µM
MCF7 breast
  GI50: 1.83 µM
  TGI: 10.5 µM
PC-3 prostate
  GI50: 4.29 µM
  TGI: 22.6 µM
UO-31 renal
  GI50: 4.18 µM
  TGI: 17.5 µM

Source: PubChem BioAssay (NCI)
